Assays:
TRPV3 = target: T1, TRPV3 (Homo sapiens, UniProt Q8NET8); assay: Selectivity Ca2+ flux assay, TRPV3 stably over-expressed in HEK-293 cells; format: cell-based; settings: agonist carvacrol (300 μM)
T1 construct: expressed in transfected cells
T1 sequence (Q8NET8 1-790): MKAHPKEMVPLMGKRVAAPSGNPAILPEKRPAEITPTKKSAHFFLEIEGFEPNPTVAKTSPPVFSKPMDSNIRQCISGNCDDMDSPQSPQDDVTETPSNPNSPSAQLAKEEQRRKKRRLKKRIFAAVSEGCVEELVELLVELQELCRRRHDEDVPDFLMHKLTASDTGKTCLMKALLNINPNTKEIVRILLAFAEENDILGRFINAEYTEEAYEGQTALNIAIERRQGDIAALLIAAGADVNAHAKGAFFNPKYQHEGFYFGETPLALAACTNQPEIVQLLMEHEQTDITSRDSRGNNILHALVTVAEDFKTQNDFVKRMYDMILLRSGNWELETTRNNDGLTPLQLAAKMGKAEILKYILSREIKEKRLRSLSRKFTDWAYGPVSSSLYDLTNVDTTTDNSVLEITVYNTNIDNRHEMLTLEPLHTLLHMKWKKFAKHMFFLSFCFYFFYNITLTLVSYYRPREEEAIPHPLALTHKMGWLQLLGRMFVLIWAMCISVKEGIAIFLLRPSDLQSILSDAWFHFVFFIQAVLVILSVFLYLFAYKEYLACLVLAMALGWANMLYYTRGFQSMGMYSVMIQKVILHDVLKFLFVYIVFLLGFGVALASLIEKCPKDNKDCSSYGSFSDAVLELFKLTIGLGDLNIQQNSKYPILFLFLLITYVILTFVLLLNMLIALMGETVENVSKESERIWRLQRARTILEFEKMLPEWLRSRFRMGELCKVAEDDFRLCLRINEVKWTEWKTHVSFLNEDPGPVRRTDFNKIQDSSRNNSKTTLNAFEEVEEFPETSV
Method: (§1) To determine selectivity of the various test compounds for TRPV4, select compounds with activity in the TRPV4 fluorometric cell-based Ca^2+ flux assays were also tested for inhibition of human TRPA1 stably over-expressed in HEK-293 cells, TRPM8 stably over-expressed in HEK-293 cells, TRPV3 stably over-expressed in HEK-293 cells, and TRPV1 stably overexpressed in human lung epithelial (BEAS-2B) cells. The assays were conducted substantially as described above for HEK-293 cells that stably overexpress TRPV4, although for TRPV1, the BEAS-2B cells were maintained in LHC-9 media containing Geneticin (300 μg/mL) and were loaded with Fluo-4AM at room temperature. The agonist for TRPA1 was 2,4-ditert butylphenol (50 μM), for TRPM8 was icilin (50 μM), for TRPV3 was carvacrol (300 μM), and for TRPV1 was nonivamide (5 μM). All other aspects of the assay described above were the same.

[1] = system: intraocular pressure (IOP); assay: In vivo tonometric IOP assay in microbead mouse model of ocular hypertension; settings: FIG. 2 right panel; P<0.01 / P<0.001, two-way ANOVA
Method: FIG. 1 is a graph showing the effect that two concentrations of topical compound 11 (0.01% and 0.1%), 0.5% timolol, and control PBS had on IOP in the microbead (MB) mouse model of ocular hypertension (N=3 separate experiments, with 7-10 mice per experimental cohort). Error bars=±S.E.M. Ocular hypertension in the mouse model of primary open angle glaucoma (POAG) was induced with intracameral injection of polystyrene microbeads. Antagonist stock solutions (10 mM) were prepared in DMSO, the final concentrations were made in PBS diluted to <0.0001% DMSO.
FIG. 2 is a bar chart showing the cumulative data for pre-IOP elevation cohorts of mouse eyes (N≥3 separate experiments, with 7-10 mice per experimental cohort). Left panel: the IOP data are plotted as % of the control value of the timolol-treated eye cohort. Middle panel: MB injection elevated IOP in all experimental cohorts.
A tonometric assay was used to measured IOP changes in mice models of ocular hypertension over a period of weeks following topical application of the compounds.
To prepare the mice models of ocular hypertension, mice were anesthetized with an intraperitoneal (IP) injection of ketamine/xylazine (90 mg/10 mg/kg of body weight). Eye drops of 0.5% proparacaine hydrochloride with 1% tropicamide ophthalmic solution (Bausch & Lomb) were applied to numb and dilate the eyes of the mice. IOP was elevated in the ipsilateral eye by injecting 2 μl of polystyrene microbeads (7.8 μm FluoSpheres; Bangs Laboratories) with a Hamilton syringe into the anterior chamber over 60 seconds. The contralateral eye was injected with phosphate buffered saline (PBS).
A rebound tonometer was used to measure IOP at 1, 2, 6 and 10 hours post-injection after topical administration of Compounds 11 and 52 and timolol, a known medication for treatment of IOP associated with ocular hypertension and glaucoma. The IOP was determined from the means of 10 to 20 readings, following the protocol described in Ryskamp et al., Sci Rep 6:30583, 2016. […]

TRPM8 = target: T2, TRPM8 (Homo sapiens, UniProt Q7Z2W7); assay: Selectivity Ca2+ flux assay, TRPM8 stably over-expressed in HEK-293 cells; format: cell-based; settings: agonist icilin (50 μM)
T2 construct: expressed in transfected cells
T2 sequence (Q7Z2W7 whole entry): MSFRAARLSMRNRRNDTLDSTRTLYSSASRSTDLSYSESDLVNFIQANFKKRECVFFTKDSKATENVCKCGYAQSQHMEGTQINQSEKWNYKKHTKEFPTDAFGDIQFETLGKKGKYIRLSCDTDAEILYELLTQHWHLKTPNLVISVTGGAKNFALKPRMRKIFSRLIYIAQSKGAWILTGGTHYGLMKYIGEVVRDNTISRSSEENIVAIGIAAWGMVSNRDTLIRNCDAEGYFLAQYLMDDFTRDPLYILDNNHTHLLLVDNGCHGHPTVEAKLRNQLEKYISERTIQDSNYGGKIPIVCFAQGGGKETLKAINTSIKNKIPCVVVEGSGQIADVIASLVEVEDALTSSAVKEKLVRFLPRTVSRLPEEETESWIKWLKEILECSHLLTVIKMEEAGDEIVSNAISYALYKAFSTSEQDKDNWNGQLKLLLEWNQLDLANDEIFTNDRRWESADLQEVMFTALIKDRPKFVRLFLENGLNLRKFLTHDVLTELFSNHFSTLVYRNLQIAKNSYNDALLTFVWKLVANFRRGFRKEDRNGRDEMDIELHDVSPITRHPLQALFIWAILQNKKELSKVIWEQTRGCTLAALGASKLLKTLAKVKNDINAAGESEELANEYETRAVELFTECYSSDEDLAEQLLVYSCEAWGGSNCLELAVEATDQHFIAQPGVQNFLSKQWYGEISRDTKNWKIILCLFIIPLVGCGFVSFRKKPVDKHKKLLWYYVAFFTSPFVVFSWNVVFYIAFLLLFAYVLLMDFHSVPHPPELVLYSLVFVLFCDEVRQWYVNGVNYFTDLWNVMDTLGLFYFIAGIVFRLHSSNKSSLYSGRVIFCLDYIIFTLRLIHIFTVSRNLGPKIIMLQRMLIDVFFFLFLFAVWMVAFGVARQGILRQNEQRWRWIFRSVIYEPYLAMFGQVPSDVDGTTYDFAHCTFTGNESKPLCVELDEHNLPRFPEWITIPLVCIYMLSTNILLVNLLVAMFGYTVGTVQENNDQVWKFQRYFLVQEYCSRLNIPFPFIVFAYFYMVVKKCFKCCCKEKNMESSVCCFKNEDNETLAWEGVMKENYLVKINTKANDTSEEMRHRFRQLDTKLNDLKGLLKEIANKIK
Method: as §1

[2] = system: intraocular pressure (IOP); assay: In vivo IOP assay in dog model of ocular hypertension (ADAMTS10 Beagles)
Method: Homozygous Beagels with autosomal recessive missense mutation in the ADAMTS10 gene develop significant IOP elevations due to decreased outflow facility for aqueous humor, resulting in open angle glaucoma that manifests as optic nerve head cupping and optic neuropathy.
8 drops of Compound 52 (200 mM in hydroxypropyl methylcellulose solution, stock dissolved in DMSO) were administered to the Beagels at 7 AM for 1.5 hours. Control eyes received the vehicle (hydroxypropyl methylcellulose eyedrop with proper dilution of DMSO). IOP was measured by tonometry at 9:00 AM (6 readings per event, averaged) in dogs under topical anesthesia (N=5 OAG, N=5 non-symptomatic dogs). General ophthalmic examinations were performed by slit lamp biomicroscopy (Kowa SL-17 Portable Slit Lamp; Kowa Company, Ltd.) and indirect ophthalmoscopy (Keeler All Pupil II headset; Keeler Instruments; Pan Retinal 2.2D condensing lens; Volk Optical) to detect potential treatment-related adverse effects.

Row | SMILES | IC50 (TRPV3) [µM] | IOP levels in MB-treated eyes, topical application [1] | IC50 (TRPM8) [µM] | average IOP after topical application ([2]; ocular hypertensive dogs, mean baseline IOP 45.5 mm Hg, 8 drops, 200 mM in hydroxypropyl methylcellulose) [mm Hg] | tolerability in dogs ([2]; topical, N=10) | signs of ocular discomfort or conjunctival hyperemia ([2]; topical, N=10, slit lamp and ophthalmoscopy)
1 | N#Cc1ccc(OCC2(CO)CN(S(=O)(=O)c3ccc(Cl)cc3Cl)C2)cc1F [Compound 11, 4-((1-((2,4-Dichlorophenyl)sulfonyl)-3-(hydroxymethyl)azetidin-3-yl)methoxy)-2-fluorobenzonitrile] | > 100 | significantly lowered IOP levels | 14.4 | – | – | –
2 | Cl.N#Cc1ccc(OCC2(N)CN(S(=O)(=O)c3ccc(Cl)cc3Cl)C2)cc1F [Compound 52, 4-((3-Amino-1-((2,4-dichlorophenyl)sulfonyl)azetidin-3-yl)methoxy)-2-fluorobenzonitrile hydrochloride salt] | > 100 | significantly lowered IOP levels | 35.9 | 36.6 | well-tolerated | no observable signs of ocular discomfort or conjunctival hyperemia
